In US20260053811A1, “METHODS OF TREATING HYPERTENSION IN OBESE SUBJECTS” (Mineralys Therapeutics, Inc., priority 2022, published 2026):

System: hypertensive subjects
Assay: 24-hour ambulatory blood pressure monitoring (ABPM), incl. nighttime dip
Assay type: in vivo, human
Settings: Part 1
Protocol: Ambulatory blood pressure monitoring was accomplished with an ambulatory blood pressure monitoring device that consists of a blood pressure cuff worn on a subject's arm attached to a small recording device that is typically attached to the subject's belt or waistband.
The ABPM device is worn for 24 hours. Throughout that period, the device records the subject's blood pressure at regular intervals, during the subject's routine daily activities and while they are sleeping. The ABPM thus provides a complete record of the subject's blood pressure over a 24-hour period.
24-hour ABPM was measured in the clinic at baseline and Study Week 7. If, for any reason, the ABPM procedure was deemed a failure at the end of Study Week 7, it may have been repeated at Study Week 8 and therefore no imputation was employed regardless of use of rescue medications. Additionally, ABPM was also collected at the end of Study Week 4 in Part 2. If a repeat test was performed, it supersedes the original test results for that visit.
Specific derived variables based on ABPM measurements include mean 24-hour, mean Daytime, and mean Nighttime of SBP, DBP, and heart rate.
Change from baseline to Week 7 in 24-hour mean SBP (and DBP) based on ABPM will be analyzed using an ANCOVA with a term for treatment group and a baseline mean 24-hour value as a covariate.
The nighttime dip is defined as
100%×(mean daytime SBP−mean nighttime SBP)/mean daytime SBP
It is expressed as a percentage and is summarized by treatment group and visit using descriptive statistics. In addition, the number and percentage of subjects with nighttime dip in each of the dipper categories (Bloomfield & Park, 2015) is presented by treatment group and visit. The categories are: • (a) <10% • (b) 10-20% inclusive • (c) >20%
Secondary endpoints of this study were: • (a) Change in 24-hour ambulatory blood pressure monitoring (ABPM) parameters (systolic and diastolic) from baseline to the end of Study Week 7. • (b) Change in office-measured SBP from baseline to the end of Study Weeks 1, 2, 3, 4, 5, 6, and 7. • (c) Change in office-measured diastolic blood pressure (DBP) from baseline to the end of Study Weeks 1, 2, 3, 4, 5, 6, 7, and 8. • (d) Proportion of subjects who achieve office-measured BP of ≤130/80 mm Hg by the end of Study Week 8.

[1] = 25 mg BID, End of Treatment, FAS post-hoc

SMILES: CC(=O)N[C@H]1CC[C@H](NC(=O)CN2CCN(c3nncc(-c4ccc(C)cc4)n3)CC2)CC1 [Compound A HBr]
- Daytime Mean SBP (ABPM), Mean (SD) (12.5 mg QD, EoT, FAS): 141.13 (15.62) mmHg
- Nighttime Mean DBP (ABPM), Mean (SD) (12.5 mg QD, EoT, FAS): 74.29 (9.59) mmHg
- Nighttime Mean SBP (ABPM), Mean (SD) (12.5 mg QD, EoT, FAS): 132.00 (18.11) mmHg
- Subjects with nighttime dip 10-20% in 24-hour systolic ABPM (12.5 mg QD, EoT, FAS): 5 (35.7) n (%)
- Subjects with nighttime dip <10% in 24-hour systolic ABPM (12.5 mg QD, EoT, FAS): 9 (64.3) n (%)
- Subjects with nighttime dip >20% in 24-hour systolic ABPM (12.5 mg QD, EoT, FAS): 0 n (%)
- 24-hr Mean DBP (ABPM) CFB to EoT, Mean (SD) (12.5 mg QD, FAS): −2.27 (8.35) mmHg
- 24-hr Mean MAP (ABPM) CFB to EoT, Mean (SD) (12.5 mg QD, FAS): −3.73 (12.21) mmHg
- 24-hr Mean SBP (ABPM) CFB to EoT, Mean (SD) (12.5 mg QD, FAS): −5.20 (16.55) mmHg
- Daytime Mean DBP (ABPM) CFB to EoT, Mean (SD) (12.5 mg QD, FAS): −2.60 (8.43) mmHg
- Daytime Mean SBP (ABPM) CFB to EoT, Mean (SD) (12.5 mg QD, FAS): −4.80 (15.10) mmHg
- Nighttime Mean DBP (ABPM) CFB to EoT, Mean (SD) (12.5 mg QD, FAS): −3.21 (9.55) mmHg
- Nighttime Mean SBP (ABPM) CFB to EoT, Mean (SD) (12.5 mg QD, FAS): −5.43 (20.36) mmHg
- LSM Δ with Placebo, 24-hr DBP (ABPM, ANCOVA) [1]: −5.13 mmHg
- LSM Δ with Placebo, 24-hr Mean MAP (ABPM, ANCOVA) [1]: −6.68 mmHg
- LSM Δ with Placebo, 24-hr SBP (ABPM, ANCOVA) [1]: −8.04 mmHg
- LSM Δ with Placebo, Daytime Mean DBP (ABPM, ANCOVA) [1]: −5.64 mmHg
- LSM Δ with Placebo, Daytime Mean SBP (ABPM, ANCOVA) [1]: −8.76 mmHg
- LSM Δ with Placebo, Mean Central DBP (ABPM, ANCOVA) [1]: −7.36 mmHg
- LSM Δ with Placebo, Mean Central Mean BP (ABPM, ANCOVA) [1]: −8.87 mmHg
- LSM Δ with Placebo, Mean Central SBP (ABPM, ANCOVA) [1]: −10.19 mmHg
- LSM Δ with Placebo, Nighttime Mean DBP (ABPM, ANCOVA) [1]: −3.28 mmHg
- LSM Δ with Placebo, Nighttime Mean SBP (ABPM, ANCOVA) [1]: −4.66 mmHg
- 24-hr Mean DBP (ABPM), Mean (SD) (25 mg BID, EoT, FAS): 76.50 (10.59) mmHg
- 24-hr Mean MAP (ABPM), Mean (SD) (25 mg BID, EoT, FAS): 103.10 (10.92) mmHg
- 24-hr Mean SBP (ABPM), Mean (SD) (25 mg BID, EoT, FAS): 129.69 (12.57) mmHg
- Daytime Mean DBP (ABPM), Mean (SD) (25 mg BID, EoT, FAS): 79.04 (10.41) mmHg
- Daytime Mean SBP (ABPM), Mean (SD) (25 mg BID, EoT, FAS): 132.58 (13.62) mmHg
- Nighttime Mean DBP (ABPM), Mean (SD) (25 mg BID, EoT, FAS): 71.38 (11.94) mmHg
- Nighttime Mean SBP (ABPM), Mean (SD) (25 mg BID, EoT, FAS): 123.92 (12.17) mmHg
- Subjects with nighttime dip 10-20% in 24-hour systolic ABPM (25 mg BID, EoT, FAS): 4 (16.7) n (%)
- Subjects with nighttime dip <10% in 24-hour systolic ABPM (25 mg BID, EoT, FAS): 19 (79.2) n (%)
- Subjects with nighttime dip >20% in 24-hour systolic ABPM (25 mg BID, EoT, FAS): 1 (4.2) n (%)
- 24-hr Mean DBP (ABPM) CFB to EoT, Mean (SD) (25 mg BID, FAS): −6.12 (9.77) mmHg
- 24-hr Mean MAP (ABPM) CFB to EoT, Mean (SD) (25 mg BID, FAS): −7.42 (12.49) mmHg
- 24-hr Mean SBP (ABPM) CFB to EoT, Mean (SD) (25 mg BID, FAS): −8.73 (15.67) mmHg
- Daytime Mean DBP (ABPM) CFB to EoT, Mean (SD) (25 mg BID, FAS): −6.23 (10.43) mmHg
- Daytime Mean SBP (ABPM) CFB to EoT, Mean (SD) (25 mg BID, FAS): −9.08 (17.41) mmHg
- Nighttime Mean DBP (ABPM) CFB to EoT, Mean (SD) (25 mg BID, FAS): −4.13 (10.86) mmHg
- Nighttime Mean SBP (ABPM) CFB to EoT, Mean (SD) (25 mg BID, FAS): −5.96 (15.37) mmHg
- LSM Δ with Placebo, 24-hr DBP (ABPM, ANCOVA) (50 mg QD, End of Treatment, FAS post-hoc): −2.74 mmHg
